Results reported in patent US5863913A, “Aromatic compound and pharmaceutical composition” (Kureha Chemical Industry Co., Ltd., priority 1996, dated 1999).

How the values were obtained:
[1] = target: T1, angiotensin II receptor subtype 1 (AT1) (Oryctolagus cuniculus, UniProt P34976); experiment: Binding to receptors: angiotensin II receptor subtype 1 (AT1); design: species or system rabbits (adrenal glands); conditions: rabbit adrenal glands, tracer 3H-angiotensin II
T1 construct: receptor : from adrenal glands in rabbits; from tissue; host or cells: rabbit adrenal glands
T1 sequence (P34976 1-359): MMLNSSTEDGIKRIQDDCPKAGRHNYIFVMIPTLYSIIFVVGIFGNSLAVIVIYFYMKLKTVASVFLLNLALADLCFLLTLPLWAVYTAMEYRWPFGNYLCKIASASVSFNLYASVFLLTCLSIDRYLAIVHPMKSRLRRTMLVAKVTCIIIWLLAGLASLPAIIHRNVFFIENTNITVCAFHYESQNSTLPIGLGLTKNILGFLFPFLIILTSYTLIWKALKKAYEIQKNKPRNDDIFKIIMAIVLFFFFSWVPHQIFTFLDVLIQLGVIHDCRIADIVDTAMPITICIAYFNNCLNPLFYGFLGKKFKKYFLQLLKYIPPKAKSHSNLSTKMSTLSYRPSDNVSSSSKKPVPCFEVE
Procedure: (§1) In this Example, the affinity to the angiotensin II receptor subtype 1 or subtype 2 was evaluated by a binding assay in accordance with the method described in Biochem. Pharmacol., 33, 4057-4062 (1984).
(§2) Specifically, the measurement of the total binding in the presence of each drug was performed as follows:
(§3) A mixture (final volume=0.25 ml) of a drug in a given concentration (the drug was dissolved in DMSO, and diluted to a double volume with a buffer attached to a drug discovery system to prepare a sample for the assay; 0.025 ml), a tracer (0.025 ml), and receptors (0.2 ml) was incubated [in the case of the angiotensin II receptor subtype 1 (AT1), at room temperature for 3 hours, and in the case of the subtype 2 (AT2), at 37° C. for 1 hour]. Then, the reaction mixture was filtered with suction (GF/C filter was used in AT1, and GF/B filter was used in AT2). The filter papers after filtration with suction (the tracer bound to the receptors) were counted by a γ-well counter (ARC-500, Aloka). The non-specific bindings were measured by repeating the above method, except that a large excess amount of a displacer was added. The specific binding of the drug in the given concentration was calculated by subtracting the non-specific binding from the total binding, respectively.
receptor : from adrenal glands in rabbits
tracer : ^3 Hangiotensin II

[2] = target: T2, angiotensin II receptor subtype 2 (AT2) (Bos taurus, UniProt G5E6F7); experiment: Binding to receptors: angiotensin II receptor subtype 2 (AT2); conditions: bovine cerebellar cortex, tracer 125I-Tyr4-angiotensin II
T2 construct: receptor : from cerebellar cortex in bovine; from tissue; host or cells: bovine cerebellar cortex
T2 sequence (G5E6F7 1-362): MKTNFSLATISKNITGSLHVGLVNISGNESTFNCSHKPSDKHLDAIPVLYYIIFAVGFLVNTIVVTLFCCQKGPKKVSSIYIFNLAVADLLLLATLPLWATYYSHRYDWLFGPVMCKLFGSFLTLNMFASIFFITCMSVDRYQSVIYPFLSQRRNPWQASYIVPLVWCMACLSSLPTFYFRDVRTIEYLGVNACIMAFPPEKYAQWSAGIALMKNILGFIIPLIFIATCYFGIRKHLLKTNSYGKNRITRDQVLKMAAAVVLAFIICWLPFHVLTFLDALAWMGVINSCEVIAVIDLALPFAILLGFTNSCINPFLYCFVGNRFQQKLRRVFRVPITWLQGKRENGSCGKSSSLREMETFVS
Procedure: as §1, §2, §3
In AT1 and AT2, the percentages found to inhibit the bindings of radioactive ligands (tracer) to receptors by the drugs to be tested (IC50 value of concentration to show 50% inhibition, or binding inhibition % in 100 μM) were measured, using the drugs to be tested and control drugs in the given concentration.
receptor : from cerebellar cortex in bovine
tracer : ^125 ITyr^4angiotensin II
control drug : angiotensin II (human)
(displacer) : angiotensin II (human)

[3] = test system: kidney disease model rats; experiment: Renal function indicatory value in kidney disease model rats; type: in vivo, Sprague-Dawley female rats; conditions: 20 mg/kg/day with drinking water, six weeks; for Creatinine clearance: 24 hours urine, control 0.22; for Creatinine / Blood urea nitrogen: serum; for Creatinine: control 2.0; for Blood urea nitrogen: control 100
Procedure: (§4) The kidney disease model rats were prepared by a ligature of branches of renal artery in accordance with a conventional method. Namely, the left hilum renalis of Sprague-Dawley female rats was exposed under anesthesia, and one of four secondary branches of the renal artery was left unligated, while the remaining three branches were ligated, respectively. After a week, the hilum renalis (artery, vein, and ureter) of the right kidney were further ligated to thereby prepare rats whose renal function was lowered to approximately 1/8 of the normal function. Each group consisted of eight rats. The drugs to be tested (20 mg/kg) were administered to each administering group, and only water was administered to a control group. Two days after the administration, the systolic blood pressure was measured by the tail cuff method using a blood pressure measuring apparatus (UR5000; Ueda).
The rats in each group were allowed to freely take up food. […] To the rats in the control group, only water was administered every day. After six weeks, 0.2 ml of blood was collected from the carotid artery of the rats under anesthesia, and centrifuged to obtain serum. Using 25 μl of the serum, the serum creatinine (Scr) was measured by a creatinine analytical instrument (Beckman). Using 10 μl of the serum, the blood urea nitrogen (BUN) was measured by a BUN analytical instrument (Beckman). The creatinine clearance was evaluated as follows:
After the serum creatinine measurement, rats were placed in urinary metabolic cages for 24 hours to collect urine. A urinary creatine concentration (Ucr) was measured by a creatinine analytical instrument, and a total volume of urination (Uvol) was also measured. The creatinine clearance (CCr) was calculated by the following formula: [formula]

[4] = test system: kidney disease model rats; experiment: Survival time of kidney diseased animals; type: in vivo, Sprague-Dawley female rats; conditions: 20 mg/kg/day with drinking water, observation period eight weeks (upper limit); control 5.0
Procedure: as §4, with “The compounds of the present invention and the reference substance were administered with drinking water to kidney disease model rats, and the action of lowering the blood pressure was observed. The kidney” for “The kidney”
The kidney disease model rats were prepared as in Example 54. Twenty-two groups (8 rats per group) were prepared in a manner such that there was no major difference between the groups in the serum creatinine value and the blood urea nitrogen value indicating renal function. The rats in each group were allowed to freely take up food. […] To the rats in the control group, only water was administered every day. If kidney diseases are aggravated, the rat will die of uremia. Thus, the survival time was observed as a comprehensive indication of the improvement of the effect on the kidney diseases. The observation period was eight weeks. Thus if all rats survived, the average survival time is eight weeks, and is an upper limit.

| SMILES | inhibition at 100 µM [1] [%] | inhibition at 100 µM [2] [%] | Creatinine clearance [3] [mL/min] | Creatinine [3] [mg/dL] | Blood urea nitrogen [3] [mg/dL] | Average survival time [4] [weeks] |
| --- | --- | --- | --- | --- | --- | --- |
| CCCCC(=O)N(Cc1ccc(C(=O)OCCN(C)C)cc1)c1cc(C(=O)N2CCOCC2)ccc1N(C)C [Compound No. 1, 4-dimethylamino-3-N-[[[4-(2'-dimethylaminoethoxycarbonyl)phenyl]methyl]valeramido]benzoic acid morpholide] | 10 | 16 | 0.47 | 1.2 | 62 | 7.5 |
| CCCCC(=O)N(Cc1ccc(C(=O)OCCCN(C)C)cc1)c1cc(C(=O)N2CCOCC2)ccc1N(C)C [Compound No. 2, 4-dimethylamino-3-N-[[[4-(3'-dimethylaminopropoxycarbonyl)phenyl]methyl]valeramido]benzoic acid morpholide] | 14 | 0 | 0.33 | 1.3 | 78 | 6.9 |
| CCCCC(=O)N(Cc1ccc(C(=O)OCCCN)cc1)c1cc(C(=O)N2CCOCC2)ccc1N(C)C [Compound No. 3, 3-N-[[[4-(3'-aminopropoxycarbonyl)phenyl]methyl]valeramido]-4-dimethylaminobenzoic acid morpholide] | 0 | 0 | 0.33 | 1.3 | 78 | 6.9 |
| CCCCC(=O)N(Cc1ccc(C(=O)OCCN(C)C)cc1)c1cc(C(=O)N2CCOCC2)ccc1C(C)C [Compound No. 6, 3-N-[[[4-(2'-dimethylaminoethoxycarbonyl)phenyl]methyl]valeramido]-4-i-propylbenzoic acid morpholide] | 11 | 21 | 0.33 | 1.3 | 75 | 7.0 |
| CCCCC(=O)N(Cc1ccc(C(=O)OCCCN(C)C)cc1)c1cc(C(=O)N2CCOCC2)ccc1C(C)C [Compound No. 7, 3-N-[[[4-(3'-dimethylamino-1'-propoxycarbonyl)phenyl]methyl]valeramido]-4-i-propylbenzoic acid morpholide] | 14 | 0 | 0.32 | 1.4 | 76 | 6.9 |
| CCCCC(=O)N(Cc1ccc(C(=O)OCCN(CC)CC)cc1)c1cc(C(=O)N2CCOCC2)ccc1C(C)C [Compound No. 8, 3-N-[[[4-(2'-diethylaminoethoxycarbonyl)phenyl]methyl]valeramido]-4-i-propylbenzoic acid morpholide] | 11 | 0 | 0.35 | 1.5 | 78 | 6.9 |
| CCCCC(=O)N(Cc1ccc(C(=O)OCCN2CCOCC2)cc1)c1cc(C(=O)N2CCOCC2)ccc1C(C)C [Compound No. 9, 3-N-[[[4-(2'-morpholinoethoxycarbonyl)phenyl]methyl]valeramido]-i-propylbenzoic acid morpholide] | 13 | 0 | 0.31 | 1.6 | 83 | 6.9 |
| CCCCCCC(=O)N(Cc1ccc(C(=O)O)cc1)c1cc(C(=O)N2CCN(CCC)CC2)ccc1N(C)C [Compound No. 12, 4-dimethylamino-3-N-[[(4-carboxyphenyl)methyl]n-heptanamido]benzoic acid 4'-n-propyl piperazide] | 0 | 0 | 0.35 | 1.3 | 80 | 7.0 |
| CCCCCCC(=O)N(Cc1ccc(C(=O)O)cc1)c1cc(C(=O)N2CCN(C)CC2)ccc1N(C)C [Compound No. 13, 3-[[(4-carboxyohenyl)methyl]n-heptanamido]-4-dimethylaminobenzoic acid 4'-methylpiperazide] | 0 | 0 | 0.32 | 1.5 | 77 | 6.9 |
| CCCCC(=O)N(Cc1ccc(C(=O)O)cc1)c1cc(C(=O)N2CCN(C)CC2)ccc1C(C)C [Compound No. 15, 3-[[(4-carboxyphenyl)methyl]valeramido]-4-i-propylbenzoic acid 4'-methylpiperazide] | 0 | 0 | 0.26 | 1.8 | 90 | 6.1 |
| CCCCCCC(=O)N(Cc1ccc(C(=O)O)cc1)c1cc(C(=O)N2CCN(C)CC2)ccc1C(C)C [Compound No. 18, 3-N-[[(4-carboxyphenyl)methyl]n-heptanamido]-4-i-propylbenzoic acid 4'-methylpiperazide] | 11 | 9 | 0.32 | 1.4 | 76 | 7.0 |
